Measurements as given in the supplement of paper PMC5908809.

What was measured:
[1] = test system: normal NK cells expanded with K562-aAPC; assay: percent inhibition of viability; higher = more inhibition; conditions: 72 h, IL-2 2.5 ng/mL
Method: (§1)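 Drug sensitivity and resistance testing on K562-aAPC-expanded normal NK cells: 5 concentrations (10-fold steps over a 10,000-fold range), 72 h at 37 °C, viability by CellTiter-Glo normalised to DMSO and benzethonium chloride controls; DSS from the fitted curve.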

DERL-7 (IL-2 2.5 ng/mL) [2] = assay: as above; conditions: 72 h
IMC-1 (IL-2 20 ng/mL) [3] = assay: as above; conditions: 72 h
KAI3 (IL-2 2.5 ng/mL) [4] = assay: as above; conditions: 72 h
KHYG-1 (IL-2 2.5 ng/mL) [5] = assay: as above; conditions: 72 h
NK-92 (IL-2 2.5 ng/mL) [6] = assay: as above; conditions: 72 h
NK-YS (IL-2 2.5 ng/mL) [7] = assay: as above; conditions: 72 h
NKL (IL-2 2.5 ng/mL) [8] = assay: as above; conditions: 72 h
SNK-6 (IL-2 2.5 ng/mL) [9] = assay: as above; conditions: 72 h
YT (IL-2 2.5 ng/mL) [10] = assay: as above; conditions: 72 h
[11] = test system: normal primary NK cells, pool 1 (3 donors) (IL-2 2.5 ng/mL); assay: as above; conditions: 72 h
[12] = test system: normal primary NK cells, pool 1 (3 donors), resting (IL-2 0 ng/mL); assay: as above; conditions: 72 h
[13] = test system: normal primary NK cells, pool 2 (3 donors) (IL-2 2.5 ng/mL); assay: as above; conditions: 72 h
[14] = test system: normal primary NK cells, pool 3 (3 donors) (IL-2 2.5 ng/mL); assay: as above; conditions: 72 h
[15] = test system: normal NK cells expanded with K562-aAPC; assay: drug sensitivity score (DSS) (DSS units); higher = more sensitive; extreme values may be limits of the assay; conditions: 72 h; IL-2 2.5 ng/mL
Method: as §1

DERL-7 (IL-2 2.5 ng/mL) [16] = assay: as above; conditions: 72 h
IMC-1 (IL-2 20 ng/mL) [17] = assay: as above; conditions: 72 h
KAI3 (IL-2 2.5 ng/mL) [18] = assay: as above; conditions: 72 h
KHYG-1 (IL-2 2.5 ng/mL) [19] = assay: as above; conditions: 72 h
NK-92 (IL-2 2.5 ng/mL) [20] = assay: as above; conditions: 72 h
NK-YS (IL-2 2.5 ng/mL) [21] = assay: as above; conditions: 72 h
NKL (IL-2 2.5 ng/mL) [22] = assay: as above; conditions: 72 h
SNK-6 (IL-2 2.5 ng/mL) [23] = assay: as above; conditions: 72 h
YT (IL-2 2.5 ng/mL) [24] = assay: as above; conditions: 72 h
[25] = test system: normal primary NK cells, pool 1 (3 donors) (IL-2 2.5 ng/mL); assay: as above; conditions: 72 h
[26] = test system: normal primary NK cells, pool 1 (3 donors), resting (IL-2 0 ng/mL); assay: as above; conditions: 72 h
[27] = test system: normal primary NK cells, pool 2 (3 donors) (IL-2 2.5 ng/mL); assay: as above; conditions: 72 h
[28] = test system: normal primary NK cells, pool 3 (3 donors) (IL-2 2.5 ng/mL); assay: as above; conditions: 72 h

CCCCC(=O)OCC(=O)[C@]1(O)Cc2c(O)c3c(c(O)c2[C@@H](O[C@H]2C[C@H](NC(=O)C(F)(F)F)[C@H](O)[C@H](C)O2)C1)C(=O)c1c(OC)cccc1C3=O [Valrubicin] (max concentration tested 5000 nM)
percent inhibition of viability [%]
Conditions	0.5 nM	5 nM	50 nM	500 nM	5000 nM
DERL-7 (IL-2 2.5 ng/mL) [2]	1.97	-4.8	35.6	99.1	101
IMC-1 (IL-2 20 ng/mL) [3]	-8.69	1.1	16.2	99.5	101
KAI3 (IL-2 2.5 ng/mL) [4]	-21.3	-1.05	42.1	62.3	85.2
KHYG-1 (IL-2 2.5 ng/mL) [5]	-6.36	1.91	9.03	89.6	109
NK-92 (IL-2 2.5 ng/mL) [6]	-14.1	-10.7	10	89.7	105
NK-YS (IL-2 2.5 ng/mL) [7]	-5.71	4.57	40.3	86.6	101
NKL (IL-2 2.5 ng/mL) [8]	-11.4	33.3	101	105	109
SNK-6 (IL-2 2.5 ng/mL) [9]	10.3	28.7	23	89.2	86
YT (IL-2 2.5 ng/mL) [10]	-0.05	4.95	0.64	87.1	109
[1]	-4.09	-1.21	4.69	55.8	101
[11]	2.9	-5.69	4.41	76	97.4
[12]	-3.66	-27.1	-0.41	88.2	92.3
[13]	-13.8	-9.19	12.8	67.3	95.2
[14]	-11.9	-6.83	15.7	53.2	98.4

Conditions	drug sensitivity score
DERL-7 (IL-2 2.5 ng/mL) [16]	22.9
IMC-1 (IL-2 20 ng/mL) [17]	20.7
KAI3 (IL-2 2.5 ng/mL) [18]	17.4
KHYG-1 (IL-2 2.5 ng/mL) [19]	17.5
NK-92 (IL-2 2.5 ng/mL) [20]	17.7
NK-YS (IL-2 2.5 ng/mL) [21]	21
NKL (IL-2 2.5 ng/mL) [22]	35.2
SNK-6 (IL-2 2.5 ng/mL) [23]	18.6
YT (IL-2 2.5 ng/mL) [24]	15.8
[15]	12.2
[25]	14.7
[26]	16.1
[27]	14.2
[28]	12.3

Nc1ccccc1NC(=O)c1ccc(CNC(=O)OCc2cccnc2)cc1 [Entinostat] (max concentration tested 10000 nM)
percent inhibition of viability [%]
Conditions	1 nM	10 nM	100 nM	1000 nM	10000 nM
DERL-7 (IL-2 2.5 ng/mL) [2]	0.45	2.75	-7.22	24.5	99.7
IMC-1 (IL-2 20 ng/mL) [3]	2.59	0.46	1.95	10.1	99.8
KAI3 (IL-2 2.5 ng/mL) [4]	-0.78	3.8	18.4	66.9	94
KHYG-1 (IL-2 2.5 ng/mL) [5]	-9.03	-10.2	-4.46	50.8	95.8
NK-92 (IL-2 2.5 ng/mL) [6]	-11.3	-2.61	7.67	73.5	96.4
NK-YS (IL-2 2.5 ng/mL) [7]	-7.17	-13.1	-7.95	20.5	95.3
NKL (IL-2 2.5 ng/mL) [8]	-7.74	-3.03	2.66	77.8	94
SNK-6 (IL-2 2.5 ng/mL) [9]	9.17	8.55	15.6	65	95.2
YT (IL-2 2.5 ng/mL) [10]	0.9	-0.08	4.17	7.95	93.3
[1]	-3.4	0.57	-3.46	17.8	99.5
[11]	-1.3	1.71	4.63	34.1	97.6
[12]	-8	-8.09	10.2	61.1	92.3
[13]	-6.42	-3.08	-10.5	24.5	95.8
[14]	-13.6	-2.26	-9.76	3.4	97.7

Conditions	drug sensitivity score
DERL-7 (IL-2 2.5 ng/mL) [16]	9.28
IMC-1 (IL-2 20 ng/mL) [17]	7.18
KAI3 (IL-2 2.5 ng/mL) [18]	14.8
KHYG-1 (IL-2 2.5 ng/mL) [19]	11.5
NK-92 (IL-2 2.5 ng/mL) [20]	14.8
NK-YS (IL-2 2.5 ng/mL) [21]	8.53
NKL (IL-2 2.5 ng/mL) [22]	14.6
SNK-6 (IL-2 2.5 ng/mL) [23]	14.4
YT (IL-2 2.5 ng/mL) [24]	6.43
[15]	8.42
[25]	9.83
[26]	13
[27]	9.03
[28]	5.88

CC(=O)O[C@@]12CO[C@@H]1C[C@H](O)[C@@]1(C)C(=O)[C@H](O)C3=C(C)[C@@H](OC(=O)[C@H](O)[C@@H](NC(=O)OC(C)(C)C)c4ccccc4)C[C@@](O)([C@@H](OC(=O)c4ccccc4)[C@H]21)C3(C)C [Docetaxel] (max concentration tested 1000 nM)
percent inhibition of viability [%]
Conditions	0.1 nM	1 nM	10 nM	100 nM	1000 nM
DERL-7 (IL-2 2.5 ng/mL) [2]	-4.53	0.19	99.5	100	100
IMC-1 (IL-2 20 ng/mL) [3]	-1.65	2.39	97.9	101	101
KAI3 (IL-2 2.5 ng/mL) [4]	-10.5	19.4	46.7	57.1	51.6
KHYG-1 (IL-2 2.5 ng/mL) [5]	-5.67	3.57	90.9	108	109
NK-92 (IL-2 2.5 ng/mL) [6]	-6.6	2.65	46	98.9	104
NK-YS (IL-2 2.5 ng/mL) [7]	-7.69	14.3	74.8	77.7	73.1
NKL (IL-2 2.5 ng/mL) [8]	-13.8	29	88.5	97.8	96.7
SNK-6 (IL-2 2.5 ng/mL) [9]	15	38.3	77.9	76.7	70.6
YT (IL-2 2.5 ng/mL) [10]	-3.12	22.3	90.7	105	105
[1]	1.57	-0.15	44.7	62.4	60.9
[11]	-5.72	-1.18	7.27	4.99	10.2
[12]	-16.6	-21.6	-3.21	-14.6	1.53
[13]	-10.9	-7.43	13.8	3.59	13.1
[14]	-13.5	-17	14	7.86	24.8

Conditions	drug sensitivity score
DERL-7 (IL-2 2.5 ng/mL) [16]	30.4
IMC-1 (IL-2 20 ng/mL) [17]	30.5
KAI3 (IL-2 2.5 ng/mL) [18]	18.3
KHYG-1 (IL-2 2.5 ng/mL) [19]	29.3
NK-92 (IL-2 2.5 ng/mL) [20]	23.4
NK-YS (IL-2 2.5 ng/mL) [21]	25.9
NKL (IL-2 2.5 ng/mL) [22]	32.2
SNK-6 (IL-2 2.5 ng/mL) [23]	28.8
YT (IL-2 2.5 ng/mL) [24]	31.9
[15]	16.8
[25]	0
[26]	0
[27]	0.25
[28]	1.58

Nc1nc(Cl)nc2c1ncn2[C@H]1C[C@H](O)[C@@H](CO)O1 [Cladribine] (max concentration tested 1000 nM)
percent inhibition of viability [%]
Conditions	0.1 nM	1 nM	10 nM	100 nM	1000 nM
DERL-7 (IL-2 2.5 ng/mL) [2]	-4.72	-1.74	2.44	83.3	100
IMC-1 (IL-2 20 ng/mL) [3]	-1.93	-4.54	-8.55	59.4	99.9
KAI3 (IL-2 2.5 ng/mL) [4]	-17.3	-11.1	-4.18	61.5	92.2
KHYG-1 (IL-2 2.5 ng/mL) [5]	-2.1	-6.64	0.12	102	99.4
NK-92 (IL-2 2.5 ng/mL) [6]	-7.06	-4.86	2.88	92.3	97.7
NK-YS (IL-2 2.5 ng/mL) [7]	-8.76	-10.6	-9.2	7.65	88.2
NKL (IL-2 2.5 ng/mL) [8]	-13.2	-8.81	-9.87	104	98.6
SNK-6 (IL-2 2.5 ng/mL) [9]	11.6	5.52	8.41	66.9	91.5
YT (IL-2 2.5 ng/mL) [10]	-4	-5.35	-6.95	5.62	56.9
[1]	-1.61	-1.55	30.3	100	100
[11]	-5.25	-7.26	23.2	93.1	96.5
[12]	-18.2	-14.8	62	90.2	90
[13]	-13.2	-12.7	24.4	90.6	93.7
[14]	-12.6	-10.5	18.2	87.7	97

Conditions	drug sensitivity score
DERL-7 (IL-2 2.5 ng/mL) [16]	15.4
IMC-1 (IL-2 20 ng/mL) [17]	12.5
KAI3 (IL-2 2.5 ng/mL) [18]	12.2
KHYG-1 (IL-2 2.5 ng/mL) [19]	18.2
NK-92 (IL-2 2.5 ng/mL) [20]	17.1
NK-YS (IL-2 2.5 ng/mL) [21]	6.1
NKL (IL-2 2.5 ng/mL) [22]	17.6
SNK-6 (IL-2 2.5 ng/mL) [23]	13.8
YT (IL-2 2.5 ng/mL) [24]	3.98
[15]	22.4
[25]	20.3
[26]	23.5
[27]	20.3
[28]	18.4
